# Measurements published in the supplement of paper PMC10307832.
# Experiments:
# Experiment in all cases: relative viability (nuclei count vs DMSO), 5 days (fraction); higher = more cells survive
# AT9283 + Lapatinib = compound: O=C(Nc1c[nH]nc1-c1nc2ccc(CN3CCOCC3)cc2[nH]1)NC1CC1 [AT9283] + CS(=O)(=O)CCNCc1ccc(-c2ccc3ncnc(Nc4ccc(OCc5cccc(F)c5)c(Cl)c4)c3c2)o1 [Lapatinib] (partner 2 µM)
# How it was run: (§1)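 Lung cancer cell lines, seeded in 1536-well plates, were treated the following day by pin tool with a single drug or with five library-drug doses (not always all listed) in √10 steps on top of a fixed anchor-drug dose. Cells were fixed and nuclei stained in one step after 5 days, and nuclei were counted. Relative viability is the nuclei count for treated wells divided by that for vehicle wells, reported as medians of duplicate plates.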
# AT9283 + Phenformin = compound: O=C(Nc1c[nH]nc1-c1nc2ccc(CN3CCOCC3)cc2[nH]1)NC1CC1 [AT9283] + N=C(N)NC(=N)NCCc1ccccc1 [Phenformin] (partner 250 µM)
# How it was run: as §1
# AT9283 + Palbociclib = compound: O=C(Nc1c[nH]nc1-c1nc2ccc(CN3CCOCC3)cc2[nH]1)NC1CC1 [AT9283] + CC(=O)c1c(C)c2cnc(Nc3ccc(N4CCNCC4)cn3)nc2n(C2CCCC2)c1=O [Palbociclib] (partner 0.5 µM)
# How it was run: as §1
# Erlotinib + Pictilisib = compound: C#Cc1cccc(Nc2ncnc3cc(OCCOC)c(OCCOC)cc23)c1 [Erlotinib] + CS(=O)(=O)N1CCN(Cc2cc3nc(-c4cccc5[nH]ncc45)nc(N4CCOCC4)c3s2)CC1 [Pictilisib] (partner 1 µM)
# How it was run: as §1
# Erlotinib + Crizotinib = compound: C#Cc1cccc(Nc2ncnc3cc(OCCOC)c(OCCOC)cc23)c1 [Erlotinib] + C[C@@H](Oc1cc(-c2cnn(C3CCNCC3)c2)cnc1N)c1c(Cl)ccc(F)c1Cl [Crizotinib] (partner 1 µM)
# How it was run: as §1
Cell Line,relative viability (AT9283 + Lapatinib; first compound 0.003 µM),relative viability (AT9283 + Lapatinib; first compound 0.03 µM),relative viability (AT9283 + Lapatinib; first compound 0.09487 µM),relative viability (AT9283 + Lapatinib; first compound 0.3 µM),relative viability (AT9283 + Phenformin; first compound 0.003 µM),relative viability (AT9283 + Phenformin; first compound 0.03 µM),relative viability (AT9283 + Phenformin; first compound 0.09487 µM),relative viability (AT9283 + Phenformin; first compound 0.3 µM),relative viability (AT9283 + Palbociclib; first compound 0.003 µM),relative viability (AT9283 + Palbociclib; first compound 0.03 µM),relative viability (AT9283 + Palbociclib; first compound 0.09487 µM),relative viability (AT9283 + Palbociclib; first compound 0.3 µM),relative viability (Erlotinib + Pictilisib; first compound 0.02 µM),relative viability (Erlotinib + Pictilisib; first compound 0.2 µM),relative viability (Erlotinib + Pictilisib; first compound 0.6325 µM),relative viability (Erlotinib + Pictilisib; first compound 2 µM),relative viability (Erlotinib + Crizotinib; first compound 0.02 µM),relative viability (Erlotinib + Crizotinib; first compound 0.2 µM),relative viability (Erlotinib + Crizotinib; first compound 0.6325 µM),relative viability (Erlotinib + Crizotinib; first compound 2 µM)
NCI-H2085,0.798,0.36,0.297,0.382,0.702,0.664,0.597,0.264,0.498,0.473,0.413,0.319,0.459,0.46,0.513,0.358,0.794,0.835,0.739,0.57
EPLC-272H,0.854,0.975,0.319,0.137,0.33,0.309,0.148,0.141,0.306,0.355,0.276,0.241,0.314,0.279,0.352,0.242,0.911,0.957,0.884,0.596
NCI-H1355,1.01,0.911,0.845,0.168,0.478,0.449,0.362,0.238,0.395,0.404,0.376,0.152,0.499,0.392,0.407,0.312,1.1,0.999,0.944,0.789
BEN,0.582,0.546,0.158,0.243,0.259,0.253,0.256,0.176,0.458,0.456,0.412,0.356,0.466,0.483,0.683,0.514,0.957,0.738,0.913,0.779
NCI-H1623,–,–,–,–,0.597,0.578,0.55,0.336,–,–,–,–,–,–,–,–,–,–,–,–
NCI-H727,0.847,0.435,0.28,0.249,0.39,0.447,0.298,0.39,0.583,0.626,0.514,0.428,0.456,0.344,0.346,0.339,0.736,0.725,0.574,0.552
NCI-H2342,–,–,–,–,0.592,0.423,0.534,0.341,0.505,0.535,0.502,0.449,–,–,–,–,–,–,–,–
UMC-11,0.978,0.142,0.128,0.202,0.308,0.184,0.178,0.171,0.327,0.235,0.243,0.186,0.795,0.7,1.04,0.816,0.644,0.62,0.84,0.585
NCI-H1755,1.08,0.775,0.357,0.399,0.579,0.626,0.394,0.422,0.434,0.463,0.469,0.499,0.422,0.456,0.416,0.374,0.889,0.888,0.904,–
LCLC-103H,–,–,–,–,0.295,0.356,0.331,0.205,0.362,0.494,0.423,0.371,0.614,0.587,0.753,0.538,1.04,1.09,1.16,1.04
NCI-H1666,0.634,0.386,0.243,0.321,0.587,0.516,0.404,0.35,0.619,0.691,0.524,0.534,0.466,0.329,0.317,0.267,1.02,0.856,0.66,0.428
IA-LM,0.793,0.27,0.0791,0.0891,–,–,–,–,–,–,–,–,0.338,–,0.348,0.13,0.808,1,0.93,0.85
ChaGo-K-1,–,–,–,–,0.476,0.341,0.235,0.204,0.931,0.761,0.295,0.212,0.472,0.659,1.05,0.508,1.24,1.16,1.2,1.1
NCI-H1793,0.743,0.273,0.16,0.256,0.301,0.352,0.138,0.219,0.275,0.329,0.298,0.255,0.272,0.386,0.306,0.302,–,–,–,–
EBC-1,0.217,0.178,0.208,0.182,–,–,–,–,–,–,–,–,0.382,0.322,0.309,0.259,0.206,0.189,0.169,0.164
SW 900,–,–,–,–,0.63,0.595,0.486,0.256,0.462,0.542,0.368,0.253,–,–,–,–,–,–,–,–
NCI-H596,0.845,0.884,0.623,0.404,0.743,0.82,0.608,0.564,–,–,–,–,0.383,0.478,0.383,0.351,0.952,0.961,1.02,0.828
NCI-H1395,0.904,0.703,0.412,0.427,0.391,0.43,0.316,0.321,0.597,0.598,0.397,0.305,0.71,0.638,0.567,0.733,–,–,–,–
A549,1.02,0.0919,0.0686,0.0884,0.284,0.0777,0.0526,0.0427,–,–,–,–,0.471,0.529,0.582,0.406,0.799,0.796,0.792,0.551
NCI-H1703,1.24,0.277,0.31,0.354,–,–,–,–,–,–,–,–,0.233,0.218,0.29,0.243,0.592,–,–,0.569
NCI-H1648,–,–,–,–,–,–,–,–,0.247,0.262,0.242,0.297,–,–,–,–,–,–,–,–
